Assay results reported in patent US7736848B2, “Cellular targets for treatment of retroviral infection” (Fox Chase Cancer Center, priority 2002, dated 2010).

How the values were obtained:
[1] = tested on: neomycin phosphotransferase II; test: Expression of neo reporter in stably transduced HeLa cells (Western blot); assay type: cell-based; details: 24 hr, up to 4 mM caffeine
Protocol: Western Blot Analyses. […] Cells were then harvested, lysed, and lysates were subjected to electrophoresis in a 10% SDS polyacrylamide gel. The separated proteins were then transferred to a PVDF membrane and the filter was treated with neomycin phosphotransferase II antibody (Upstate Biotech). Bands were detected using a chemi-luminiscence assay.

293T cells = test: Cytotoxicity in 293T cells; details: conditions of the transduction test
HIV-1 NL4-3 (X4) strain = test: HIV-1 NL4-3 replication in PBMCs (p24 antigen ELISA); assay type: cell-based; details: 4 mM; for drop in HIV-1 p24 antigen levels: 7 days post-infection; for p24 antigen levels vs control: 12 days post-infection; for decrease in HIV-1 p24 antigen vs NL4-3 infected control: day 3 post-infection; for inhibition of NL4-3 growth: p24 at 6 days post-infection
ASV vector [2] = test: Viral DNA synthesis in ASV-infected HeLa cells (real time PCR); assay type: cell-based; details: up to 4 mM; 24 hr post-infection
Protocol: Real Time PCR. Extrachromosomal DNA from infected and uninfected cells was prepared by HIRT extraction. Real-Time PCR amplification, data-acquisition and analysis were preformed with the Cephid Smart Cycler. The Biochemistry and Biotechnology Facility at the Fox Chase Cancer Center prepared the primers using BHQ-1 non-fluorogenic quencher (Biosearch Technologies). Viral sequence primers directed against ASV pol were selected using Primer Express™ (Applied Biosystems) and had the following sequences: Forward primer, 5′-[…]-3′ (SEQ ID NO:1); Reverse primer, 5′-[…]-3′ (SEQ ID NO:2); Probe, 5′-(FAM) CC […] (BHQ)-3′ (SEQ ID NO:3). Results were normalized with those from primers against mitochondrial DNA (Asaad et al., Oncogene 19: 5788-5800, 2000). Each reaction contained 1× Reaction Buffer (20 mM Tris-HCl, pH 8.4), 50 mM KCl), 0.25 mM each dNTP, 2.5 mM MgCl2, 400 nM primers, 200 nM probe and 2.5 U Platinum Taq Polymerase (Invitrogen). Relative quantitation was calculated with the Comparative Cycle Threshold Method using the untreated samples as the reference (User, B. ABI Prism 7700 Sequence Detection System; the Perkin Elmer Corporation, P/N 4303859 Rev. A. Stock No. 77802-001, 1997). […] Relative quantitation was averaged and standard deviations were determined between independent experiments.
Synthesis of viral DNA was detected by quantitative PCR.

ASV vector [3] = test: organism not typed; assay type: cell-based; details: HeLa, 24 h, read-out: inhibition of integration (host-viral junction DNA)
HIV-1-based vector [4] = test: Stable transduction of HeLa cells by HIV-1-lacZ vector; assay type: cell-based; details: Human immunodeficiency virus 1, HeLa, read-out: IC50, reduction in number of cells stably transduced by HIV-1 vector
Protocol: (§1) Infection of HeLa Cells. […] The virus-containing medium was then replaced with fresh medium. Two to seven days after infection with the HIV-1 vector (as indicated) cells were stained using a β-galactosidase assay (Stratagene). Cells were selected for G418 resistance one day after infection with the ASV vector by addition of 1 mg/ml G418.
(§2) After infection with ASV, G418 was also added at this time.
Transduction was measured five to six days later by the presence of β-galactosidase positive colonies.

ATR kinase = ATR kinase (Homo sapiens, UniProt Q13535); details: in vitro; read-out: IC50 for ATR kinase inhibition; cited from earlier work
HIV-1-based vector [5] = test: HIV-1 vector transduction of dividing and nocodazole-arrested 293T cells; assay type: cell-based
Protocol: To arrest cells in M phase, cells were treated with nocodazole (1 μg/ml) for 24 hrs prior to addition of the virus. Nocodazole was maintained in the cell culture medium during and after infection. Cells were distributed in a 24-well plate at a density of 5×10^4 cells per well and nocodazole was added to a final concentration of 1 μg/ml. […] Two days post-infection, cells were stained using a β-galactosidase assay (Stratagene according to manufacturer's protocol) and blue cells counted.

ASV vector [6] = test: Nuclear import: LTR-LTR circle junctions in ASV-infected HeLa cells; assay type: cell-based
ASV-based vector = test: Stable transduction of HeLa cells by ASV neo vector; assay type: cell-based; details: 24 h, read-out: IC50, reduction in number of cells stably transduced by ASV vector
Protocol: as §1, §2

HIV-1 strain NL4-3 = test: 2-LTR DNA junctions (nuclear import) in NL4-3-infected PBMCs; assay type: cell-based; details: 24 hours post-infection
Source text: To determine if methylxanthines altered the nuclear import of HIV-1 pre-integration complexes (PICs), we analyzed the level of 2-LTR DNA junctions in infected cells by a quantitative DNA-PCR technique. […] To normalize the cell number, the human beta-globin gene was used as a standard (Nunnari et al., 2002, supra; Otero et al., 2003, supra).

mTOR = mTOR (Homo sapiens, UniProt P42345); details: cited from earlier work
HIV-1-based vector [7] = test: HIV-1 vector transduction of terminally differentiated primary macrophages; assay type: cell-based; details: caffeine 24 hrs
Protocol: Human peripheral blood mononuclear cells (PBMC) were isolated by centrifugation in Ficoll-Hypaque (Sigma, St. Louis, Mo., USA) from buffy coats of HIV-1 seronegative individuals. Monocyte-derived macrophages (MDM) were obtained from PBMC by adherence to plastic for 12 hours in DMEM supplemented with 10% human serum (Cellgro, Herndon, Va., USA), washed, and cultured in the same medium in the presence of macrophage colony-stimulating factor (MCSF, 2 ng/ml; Sigma, St. Louis, Mo., USA) for another 7-10 days, allowing cells to differentiate before infection. The medium was replaced twice during the incubation period. The primary cells were kept at 37° C. in a humidified incubator with 5% CO2.

[8] = tested on: primary human macrophages; test: Cytotoxicity in primary human macrophages; details: conditions of the transduction test
HIV-1 integrase = molecular target: T1, HIV-1 integrase (Human immunodeficiency virus type 1 group M subtype B, UniProt P04585); test: In vitro integrase activity, HIV-1 integrase; assay type: biochemical; details: up to 10 mM
T1 construct: For HIV-1 integrase, reactions contained 1.0 M HIV IN
Protocol: For HIV-1 integrase, reactions contained […] HIV IN, 1.0 μM U5 21/21 substrate (Katz & Skalka, Ann. Rev. Biochem. 63: 133-173, 1994; Coffin et al., Retroviruses, Cold Spring Harbor Laboratory, 1997) in 22 mM Hepes, pH 7.5, 5.1 mM DTT, 6% glycerol, 6.66% DMSO, 50 mM KCl and 10 mM MnCl2. Conditions were as described for ASV IN, except that the final incubation time was 60 min.

PBMC = details: at the utilized concentration (4 mM)
DNA-PK = DNA-PK (Homo sapiens, UniProt P78527); details: cited from earlier work
ATM kinase = ATM kinase (Homo sapiens, UniProt Q13315); details: in vitro; read-out: IC50 for ATM kinase inhibition; cited from earlier work
HIV-1-based vector [9] = test: Transduction of parental GM847 cells treated with doxycycline; assay type: cell-based
Source text: To examine the role of ATR more directly, the inventors examined the efficiency of retroviral DNA integration and transduction in cells defective in ATR function. […] Cells that synthesize the dominant-negative ATRkd protein (doxycycline-inducible expression) are viable, but show deficiencies in DNA repair that are distinct from those in cells deficient in ATM.
Because ATR was also implicated in the regulation of Vpr-induced G2/M arrest, transduction of ATRkd-expressing cells by the multiply attenuated HIV-1-based vector was also evaluated.

PCNA [10] = test: PCNA Western blot in nocodazole-treated GM847/ATRkd cells; assay type: cell-based, human; details: nocodazole 1 μg/ml
Protocol: GM847/ATRkd cells were plated at a density of 2×10^4 cells per well of 24-well plate, in the presence or absence of doxycycline (5 μg/ml) and nocodazole (1 μg/ml).
To examine the role of ATR in growth-arrested cells, the GM847/ATRkd cells were treated with nocodazole in addition to doxycycline.

PCNA [11] = test: PCNA Western blot in nocodazole-treated 293T cells; assay type: cell-based; details: nocodazole 1 μg/ml, 24 hrs
Protocol: To determine the efficiency of the nocodazole arrest, cells were assayed for expression of the proliferating-cell nuclear antigen (PCNA) by Western blotting with an anti-PCNA antibody. PCNA accumulates in cells as they enter S phase, but is rapidly degraded in other phases of the cell cycle. (Takase, K et al. Reversible G1 arrest induced by dimethyl sulfoxide in human lymphoid cell lines: kinetics of the arrest and expression of the cell cycle marker proliferating cell nuclear antigen in Raji cells. Cell Growth Differ 1992, 3:515-521).

[12] = tested on: retroviral transduction of HeLa cells; test: Retroviral transduction of HeLa cells treated with mTOR inhibitor
Source text: To determine if mTOR is involved in retroviral transduction, the inventors infected HeLa cells and treated them with the mTOR-specific inhibitor, rapamycin.

[13] = tested on: macrophage-tropic (R5) HIV-1 strain, ADA; test: HIV-1 ADA replication in PBMCs (p24 antigen); assay type: cell-based; details: Human immunodeficiency virus 1, PBMC, p24 at 6 days post-infection
[14] = tested on: p53 phosphorylated on serine 15; test: p53 serine 15 phosphorylation in NL4-3-infected PBMCs (Western blot); assay type: cell-based, human; details: 24 hrs
Source text: (§3) To establish if HIV-1 infection triggers the DNA damage response that is controlled by these kinases, human PBMCs were infected with the HIV-1 NL4-3 strain and analyzed by Western blotting to determine the levels of phosphorylation by ATM and ATR in these cells. Western blotting was sequentially performed with an anti pBRCA1 (Bethyl Laboratories, Montgomery, Tex., cat # A300-008A) or an anti-Ku86 antibody (Santa Cruz, sc-9034, Santa Cruz, Calif.). For detection of the p53 phosphorylated on serine 15 residue, Western blotting was performed with a rabbit polyclonal antibody from Cell Signaling Technology, Beverly, Mass. (cat # 9284S).

[15] = cited from earlier work
[16] = tested on: BRCA1 phosphorylated on serine 1423; test: BRCA1 serine 1423 phosphorylation in PBMCs (Western blot); assay type: cell-based, human
Source text: as §3

ATR kinase, sequence (Q13535 whole entry): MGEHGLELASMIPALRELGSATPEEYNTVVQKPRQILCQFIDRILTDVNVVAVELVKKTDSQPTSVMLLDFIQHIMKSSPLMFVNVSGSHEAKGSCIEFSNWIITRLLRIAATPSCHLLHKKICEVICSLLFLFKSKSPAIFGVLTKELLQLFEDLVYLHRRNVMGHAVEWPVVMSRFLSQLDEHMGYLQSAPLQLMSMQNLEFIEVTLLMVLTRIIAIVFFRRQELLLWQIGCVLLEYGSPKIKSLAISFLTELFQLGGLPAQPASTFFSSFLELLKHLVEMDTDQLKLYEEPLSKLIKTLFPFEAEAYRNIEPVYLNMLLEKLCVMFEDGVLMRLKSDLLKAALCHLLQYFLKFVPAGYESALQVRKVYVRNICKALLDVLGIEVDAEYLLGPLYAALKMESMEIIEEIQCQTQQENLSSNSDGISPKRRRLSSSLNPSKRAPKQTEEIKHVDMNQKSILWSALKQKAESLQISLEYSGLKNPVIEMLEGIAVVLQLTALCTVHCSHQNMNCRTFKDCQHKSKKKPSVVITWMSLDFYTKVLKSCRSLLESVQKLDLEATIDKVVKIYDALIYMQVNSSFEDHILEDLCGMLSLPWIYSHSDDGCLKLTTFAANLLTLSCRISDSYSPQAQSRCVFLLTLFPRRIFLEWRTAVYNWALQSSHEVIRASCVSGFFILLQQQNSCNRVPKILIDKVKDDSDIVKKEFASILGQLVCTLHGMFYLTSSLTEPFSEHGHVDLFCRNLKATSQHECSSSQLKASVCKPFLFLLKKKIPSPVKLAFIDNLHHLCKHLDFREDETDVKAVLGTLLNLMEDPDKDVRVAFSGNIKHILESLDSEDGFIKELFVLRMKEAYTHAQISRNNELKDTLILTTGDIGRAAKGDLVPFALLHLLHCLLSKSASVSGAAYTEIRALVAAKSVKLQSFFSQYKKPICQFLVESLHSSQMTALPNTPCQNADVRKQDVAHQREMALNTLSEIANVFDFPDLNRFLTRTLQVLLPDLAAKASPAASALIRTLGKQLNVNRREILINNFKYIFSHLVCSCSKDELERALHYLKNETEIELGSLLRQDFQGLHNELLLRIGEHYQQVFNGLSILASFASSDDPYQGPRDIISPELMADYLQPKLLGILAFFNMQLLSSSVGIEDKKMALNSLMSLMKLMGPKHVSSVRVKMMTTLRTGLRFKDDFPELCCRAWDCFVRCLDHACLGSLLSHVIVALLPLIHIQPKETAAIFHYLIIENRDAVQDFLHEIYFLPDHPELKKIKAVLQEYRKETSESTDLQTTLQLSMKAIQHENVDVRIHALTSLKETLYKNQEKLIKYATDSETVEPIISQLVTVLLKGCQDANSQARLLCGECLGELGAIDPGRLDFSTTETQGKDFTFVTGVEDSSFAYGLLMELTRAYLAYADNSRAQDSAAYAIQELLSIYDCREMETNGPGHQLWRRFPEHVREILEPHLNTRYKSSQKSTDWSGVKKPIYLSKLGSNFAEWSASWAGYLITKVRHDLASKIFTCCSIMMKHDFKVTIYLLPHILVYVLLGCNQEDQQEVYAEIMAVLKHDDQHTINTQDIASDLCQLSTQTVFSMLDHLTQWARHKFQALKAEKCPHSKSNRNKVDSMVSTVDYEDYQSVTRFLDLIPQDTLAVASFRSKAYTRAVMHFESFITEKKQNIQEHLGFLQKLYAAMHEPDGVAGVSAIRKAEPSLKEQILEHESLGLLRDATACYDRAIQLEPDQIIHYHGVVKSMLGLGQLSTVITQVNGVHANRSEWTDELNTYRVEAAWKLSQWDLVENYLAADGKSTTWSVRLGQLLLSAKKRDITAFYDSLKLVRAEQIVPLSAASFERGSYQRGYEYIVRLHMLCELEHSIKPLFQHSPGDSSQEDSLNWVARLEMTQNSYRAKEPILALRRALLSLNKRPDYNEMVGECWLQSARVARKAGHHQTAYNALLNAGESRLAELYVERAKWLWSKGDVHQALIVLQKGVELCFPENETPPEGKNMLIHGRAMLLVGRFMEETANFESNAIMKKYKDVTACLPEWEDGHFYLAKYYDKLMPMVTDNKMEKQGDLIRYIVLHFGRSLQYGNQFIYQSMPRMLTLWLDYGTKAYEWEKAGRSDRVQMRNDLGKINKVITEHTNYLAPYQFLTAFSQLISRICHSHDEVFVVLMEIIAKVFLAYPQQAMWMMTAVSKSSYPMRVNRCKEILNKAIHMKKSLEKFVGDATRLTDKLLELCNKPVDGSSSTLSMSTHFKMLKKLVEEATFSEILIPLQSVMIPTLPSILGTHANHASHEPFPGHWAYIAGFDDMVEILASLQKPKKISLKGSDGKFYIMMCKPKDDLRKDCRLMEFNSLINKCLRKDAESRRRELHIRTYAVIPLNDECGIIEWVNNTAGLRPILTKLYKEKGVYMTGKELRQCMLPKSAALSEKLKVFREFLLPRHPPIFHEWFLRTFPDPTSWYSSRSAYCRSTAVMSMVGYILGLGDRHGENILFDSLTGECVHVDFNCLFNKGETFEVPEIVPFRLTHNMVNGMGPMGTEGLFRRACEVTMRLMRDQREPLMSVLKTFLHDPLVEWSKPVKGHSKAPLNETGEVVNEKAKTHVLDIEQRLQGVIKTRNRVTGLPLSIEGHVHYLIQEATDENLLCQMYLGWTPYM
ATR kinase, sequence (Q8WXE1 whole entry partner): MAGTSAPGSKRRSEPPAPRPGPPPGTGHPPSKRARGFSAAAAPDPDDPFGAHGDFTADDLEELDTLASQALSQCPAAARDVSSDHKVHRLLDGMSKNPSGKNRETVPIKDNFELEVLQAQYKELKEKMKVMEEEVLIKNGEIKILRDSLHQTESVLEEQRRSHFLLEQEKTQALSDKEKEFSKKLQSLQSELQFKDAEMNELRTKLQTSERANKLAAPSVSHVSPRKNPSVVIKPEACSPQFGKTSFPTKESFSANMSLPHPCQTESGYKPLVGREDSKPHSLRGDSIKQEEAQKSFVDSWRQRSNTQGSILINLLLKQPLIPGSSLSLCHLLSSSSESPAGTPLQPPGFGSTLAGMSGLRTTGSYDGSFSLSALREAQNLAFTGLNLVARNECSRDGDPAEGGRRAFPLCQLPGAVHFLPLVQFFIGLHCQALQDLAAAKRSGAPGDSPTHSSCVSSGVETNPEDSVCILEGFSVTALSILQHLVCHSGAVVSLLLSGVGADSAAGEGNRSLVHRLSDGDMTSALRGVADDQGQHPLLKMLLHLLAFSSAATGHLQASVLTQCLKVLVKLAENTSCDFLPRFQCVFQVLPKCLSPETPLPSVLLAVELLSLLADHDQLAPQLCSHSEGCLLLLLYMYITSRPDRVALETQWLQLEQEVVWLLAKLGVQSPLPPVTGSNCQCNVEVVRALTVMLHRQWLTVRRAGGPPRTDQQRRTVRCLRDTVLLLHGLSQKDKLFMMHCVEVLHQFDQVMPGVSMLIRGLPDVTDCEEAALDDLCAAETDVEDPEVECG

Question: Which results are given for `Cn1c(=O)c2c(ncn2C)n(C)c1=O` [caffeine, 1,3,7-trimethylxanthine]?
Answer: amount of reporter protein (neomycin phosphotransferase) [1]: no reduction; cytotoxicity (293T cells): No caffeine cytotoxicity; drop in HIV-1 p24 antigen levels (HIV-1 NL4-3 (X4) strain): three; p24 antigen levels vs control (HIV-1 NL4-3 (X4) strain): reached the control level; decrease in HIV-1 p24 antigen vs NL4-3 infected control (HIV-1 NL4-3 (X4) strain): 9 fold; inhibition of NL4-3 growth (HIV-1 NL4-3 (X4) strain): approximately 9 fold; effect on amount of viral DNA detected (ASV vector [2]): only a modest effect; inhibition at 4000 µM (ASV vector [3]): 88%; IC50 (HIV-1-based vector [4]): ~1500 µM; IC50 (ATR kinase): 1000 to 2000 µM; transduction by multiply attenuated HIV-1-based vector (lacking vpr, vif, vpu, nef) (HIV-1-based vector [5]; 293T cells, dividing and nocodazole-arrested): inhibited; HIV-transduction of dividing cells (HIV-1-based vector [5]; exponentially dividing 293T cells, caffeine 24 h, dose-dependent): inhibited; HIV-transduction of nocodazole-arrested cells (HIV-1-based vector [5]; nocodazole-arrested 293T cells, caffeine 24 h, dose-dependent): inhibited; formation of circle junctions (ASV vector [6]; 2 mM caffeine): not significantly affected; formation of circle junctions (ASV vector [6]; 4 mM caffeine): only a modest decrease; IC50 (ASV-based vector): ~800 µM; level of 2-LTR junctions (HIV-1 strain NL4-3): No significant inhibitory effect; inhibition of mTOR in vitro (mTOR): inhibits; transduction of terminally differentiated primary human macrophages (HIV-1-based vector [7]): inhibit; cytotoxicity [8]: no visible cytotoxicity; processing activity of HIV-1 integrase (HIV-1 integrase): unaffected; cellular cytotoxicity (XTT assay) (PBMC): did not show any significant cellular cytotoxicity; sensitivity of DNA-PK to caffeine (DNA-PK): not sensitive; IC50 (ATM kinase): 1000 to 2000 µM

Question: With `C[C@H]1c2cccc(O)c2C(=O)C2=C(O)[C@]3(O)C(=O)C(C(N)=O)=C(O)[C@@H](N(C)C)[C@@H]3[C@@H](O)[C@@H]21` [doxycycline] as the compound, how does the “effect on transduction of parental cells” value (HIV-1-based vector [9]) read?
Answer: The value was “no effect”.

Question: What does the source list for `COC(=O)Nc1nc2ccc(C(=O)c3cccs3)cc2[nH]1` [nocodazole]?
Answer: amount of PCNA relative to exponentially dividing cells (PCNA [10]): 10-20%; amount of PCNA relative to exponentially dividing cells (PCNA [11]): ≤ 5%

Question: For `CO[C@H]1C[C@@H]2CC[C@@H](C)[C@@](O)(O2)C(=O)C(=O)N2CCCC[C@H]2C(=O)O[C@H]([C@H](C)C[C@@H]2CC[C@@H](O)[C@H](OC)C2)CC(=O)[C@H](C)/C=C(\C)[C@@H](O)[C@@H](OC)C(=O)[C@H](C)C[C@H](C)/C=C/C=C/C=C/1C` [rapamycin], which “effect on retroviral transduction” value [12] is on record?
Answer: Its value is “no effect”.

Question: With `Cn1cnc2c1c(=O)[nH]c(=O)n2C` [theobromine, 3,7-dimethylxanthine] as the compound, how does the IC50 [13] read?
Answer: The IC50 was ~100 µM.

Question: What about the “inhibition of NL4-3 growth” value (HIV-1 NL4-3 (X4) strain) of the same compound?
Answer: Its value is ~2 fold.

Question: With `Cn1c(=O)c2[nH]cnc2n(C)c1=O` [theophylline, 1,3-dimethylxanthine] as the compound, how does the IC50 [13] read?
Answer: Its IC50 is ~60 µM.

Question: And the “p53 phosphorylation (serine 15)” value [14]?
Answer: The value was “suppressed”.

Question: And the “concentration reached in plasma of theophylline-treated patients” value [15]?
Answer: The value was 28 to 110 µM.

Question: And the “drop in HIV-1 p24 antigen levels” value (HIV-1 NL4-3 (X4) strain)?
Answer: The value was “four-fold”.

Question: And the “p24 antigen levels vs control” value (HIV-1 NL4-3 (X4) strain)?
Answer: Its value is “reached the control level”.

Question: What about the “decrease in HIV-1 p24 antigen vs NL4-3 infected control” value (HIV-1 NL4-3 (X4) strain) of the same compound?
Answer: The value was 9 fold.

Question: What about the “inhibition of NL4-3 growth” value (HIV-1 NL4-3 (X4) strain) of the same compound?
Answer: The value was ~5 fold.

Question: What about the “BRCA1 phosphorylation (serine 1423)” value ([16]; NL4-3-infected PBMCs, 24 hrs) of the same compound?
Answer: Its value is “suppressed”.

Question: What about the “basal phosphorylation of BRCA1 on serine 1423” value ([16]; PBMCs, basal) of the same compound?
Answer: Its value is “failed to suppress”.

Question: What about the “cellular cytotoxicity (XTT assay)” value (PBMC) of the same compound?
Answer: Its value is “did not show any significant cellular cytotoxicity”.
